From publication PMC6327980 (Journal of Enzyme Inhibition and Medicinal Chemistry, 2018)
Where two headings read alike, the source gives them in different places.

Key:
VchCAα = target: T1, VchCAα (Vibrio cholerae, UniProt Q9KMP6); experiment: biochemical
T1 construct: gene VC_A0274

BpsCAγ = target: T2, BpsCAγ; format: biochemical, Burkholderia pseudomallei
T2 construct: gene BpsCAgamma

BpsCAβ = target: T3, BpsCAβ (Burkholderia pseudomallei, UniProt Q63Y17); format: biochemical; details: read-out: BpsCAβ
T3 construct: gene BPSL0372

VchCAβ = target: T4, VchCAβ (Vibrio cholerae, UniProt Q9KUD6); experiment: biochemical
T4 construct: gene VC_0586
T4 sequence (Q9KUD6 1-222): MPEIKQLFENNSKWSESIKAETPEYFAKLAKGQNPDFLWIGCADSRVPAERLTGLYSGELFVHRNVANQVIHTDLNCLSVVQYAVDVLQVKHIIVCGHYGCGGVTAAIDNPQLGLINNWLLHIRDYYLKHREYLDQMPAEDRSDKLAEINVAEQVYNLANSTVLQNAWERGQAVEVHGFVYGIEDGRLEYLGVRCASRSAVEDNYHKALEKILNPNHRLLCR

T1 sequence (Q9KMP6 21-239 limits assumed): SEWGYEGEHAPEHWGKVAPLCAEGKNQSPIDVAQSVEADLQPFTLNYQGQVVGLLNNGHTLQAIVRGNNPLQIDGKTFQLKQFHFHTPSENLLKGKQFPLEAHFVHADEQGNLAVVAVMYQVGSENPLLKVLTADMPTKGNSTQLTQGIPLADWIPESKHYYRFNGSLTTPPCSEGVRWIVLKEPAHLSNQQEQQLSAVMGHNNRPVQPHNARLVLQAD
T3 sequence (Q63Y17 1-256): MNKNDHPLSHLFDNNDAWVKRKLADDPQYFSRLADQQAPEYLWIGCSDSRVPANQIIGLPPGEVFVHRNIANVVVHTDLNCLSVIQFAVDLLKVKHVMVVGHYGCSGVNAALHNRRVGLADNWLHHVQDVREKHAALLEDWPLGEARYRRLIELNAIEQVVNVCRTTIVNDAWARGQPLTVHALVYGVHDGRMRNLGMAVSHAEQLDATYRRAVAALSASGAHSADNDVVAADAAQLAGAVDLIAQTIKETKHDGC

Row | SMILES | Ki (VchCAα) | Ki (BpsCAγ; read-out: VchCAγ) | Ki (BpsCAβ) | Ki (VchCAβ) | Ki (BpsCAγ; read-out: BpsCAγ)
1 | NS(=O)(=O)c1ccc(-c2ncc(C[Te]c3ccccc3)[se]2)cc1 [9a] | 0.94 µM | 8.9 µM | 0.92 µM | 7.7 µM | –
2 | Cc1ccc([Te]Cc2cnc(-c3ccc(S(N)(=O)=O)cc3)[se]2)cc1 [9b] | 0.47 µM | 7.6 µM | 0.32 µM | 7.72 µM | –
3 | COc1ccc([Te]Cc2cnc(-c3ccc(S(N)(=O)=O)cc3)[se]2)cc1 [9c] | 0.77 µM | – | – | 9.08 µM | –
4 | NS(=O)(=O)c1ccc(-c2ncc(C[Se]c3ccccc3)[se]2)cc1 [10a] | 0.87 µM | – | – | 8.84 µM | –
5 | Cc1ccc([Se]Cc2cnc(-c3ccc(S(N)(=O)=O)cc3)[se]2)cc1 [10b] | 0.46 µM | – | – | 8.59 µM | –
6 | COc1ccc([Se]Cc2cnc(-c3ccc(S(N)(=O)=O)cc3)[se]2)cc1 [10c] | 0.92 µM | – | – | 6.79 µM | –
7 | N=C(N)SCc1cnc(-c2ccc(S(N)(=O)=O)cc2)[se]1 [compound 11, 11] | 0.44 µM | – | – | 9.12 µM | 6.55 µM
